Results as given in patent publication EP0375557A1, “Glycine derivative process for preparation thereof, and pharmaceutical composition containing it” (TANABE SEIYAKU CO., LTD., priority 1988, dated 1990).

Tested on: arachidonic acid-induced pulmonary embolism
Assay: Inhibiting effect on arachidonic acid-induced pulmonary embolism (in vivo)
Settings: Mus musculus, 3 h; oral administration in aqueous CMC to fasted ddY-male mice; arachidonic acid (125 mg/10ml/kg) into tail vein three hours later; dose required to induce at least 15 % decrease in recovery time of locomotive activity vs control; read-out: Minimum effective dose
Description: [Inhibiting effect on arachidonic acid-induced pulmonary embolism (in vivo)]
An aqueous carboxymethylcellulose (hereinafter referred to as "CMC") solution containing a test compound (20 ml/kg) was orally administered to ddY-male mice (8 mice per group) fasted overnight.

SMILES: CC(CNS(=O)(=O)c1ccc(Cl)cc1)c1ccc(NCC(=O)NCCCC(=O)O)cc1 (stereo not shown) [Example 4]
- minimal effective dose: 3 mg/kg

SMILES: CC(Cc1ccc(NCC(=O)O)cc1)NS(=O)(=O)c1ccc(Cl)cc1 (stereo not shown) [Example 2]
- minimal effective dose: 1 mg/kg

SMILES: O=C([O-])CNc1ccc(CCNS(=O)(=O)c2ccccc2)cc1.[Na+] [Known compound, Sodium N-[4-(2-benzenesulfonylaminoethyl)phenyl]glycinate, reference compound]
- minimal effective dose: 10 mg/kg

SMILES: CC(CNS(=O)(=O)c1ccc(Cl)cc1)c1ccc(NCC(=O)NCCC(=O)O)cc1 (stereo not shown) [Example 3]
- minimal effective dose: 1 mg/kg
